Values quoted from earlier work as cited in patent publication US20120101390A1, “Multi-Modal Imaging for Diagnosis of Early Stage Epithelial Cancers” (priority 2010, published 2012).

Target: T1, integrin αvβ3 (Homo sapiens, UniProt P05106+P06756)
T1 construct: integrin αvβ3-positive U87MG xenograft models; endogenous in cells; host or cells: U87MG (tumour xenograft)
Settings: integrin αvβ3-positive U87MG xenograft models

T1 sequence (P06756 31-889 limits assumed): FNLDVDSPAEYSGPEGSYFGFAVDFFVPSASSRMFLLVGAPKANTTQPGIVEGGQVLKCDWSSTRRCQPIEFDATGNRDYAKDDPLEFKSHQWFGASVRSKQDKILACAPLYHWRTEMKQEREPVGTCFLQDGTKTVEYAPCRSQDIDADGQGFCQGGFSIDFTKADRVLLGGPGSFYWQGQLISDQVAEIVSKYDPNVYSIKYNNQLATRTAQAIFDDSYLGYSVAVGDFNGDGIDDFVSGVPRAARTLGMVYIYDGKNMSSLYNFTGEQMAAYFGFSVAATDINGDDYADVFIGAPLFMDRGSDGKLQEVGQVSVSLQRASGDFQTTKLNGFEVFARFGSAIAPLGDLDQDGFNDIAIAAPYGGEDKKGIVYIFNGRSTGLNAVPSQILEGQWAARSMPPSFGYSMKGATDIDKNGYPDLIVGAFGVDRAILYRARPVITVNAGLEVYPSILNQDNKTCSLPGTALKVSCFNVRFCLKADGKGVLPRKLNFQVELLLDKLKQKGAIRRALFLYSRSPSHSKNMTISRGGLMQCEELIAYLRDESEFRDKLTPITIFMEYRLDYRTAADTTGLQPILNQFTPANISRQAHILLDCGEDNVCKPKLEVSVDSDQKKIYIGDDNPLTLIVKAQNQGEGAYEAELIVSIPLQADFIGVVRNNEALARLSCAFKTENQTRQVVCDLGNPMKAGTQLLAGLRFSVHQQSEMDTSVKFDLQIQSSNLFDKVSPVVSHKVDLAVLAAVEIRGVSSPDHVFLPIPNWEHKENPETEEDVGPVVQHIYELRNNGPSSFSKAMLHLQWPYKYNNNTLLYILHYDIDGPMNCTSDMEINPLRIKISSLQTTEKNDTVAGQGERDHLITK
T1 sequence (P06756 891-1048 limits assumed): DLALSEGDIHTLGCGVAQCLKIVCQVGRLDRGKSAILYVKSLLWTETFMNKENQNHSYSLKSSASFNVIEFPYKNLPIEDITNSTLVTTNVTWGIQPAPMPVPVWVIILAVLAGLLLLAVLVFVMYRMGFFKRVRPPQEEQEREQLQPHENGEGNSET
T1 sequence (P05106 27-788): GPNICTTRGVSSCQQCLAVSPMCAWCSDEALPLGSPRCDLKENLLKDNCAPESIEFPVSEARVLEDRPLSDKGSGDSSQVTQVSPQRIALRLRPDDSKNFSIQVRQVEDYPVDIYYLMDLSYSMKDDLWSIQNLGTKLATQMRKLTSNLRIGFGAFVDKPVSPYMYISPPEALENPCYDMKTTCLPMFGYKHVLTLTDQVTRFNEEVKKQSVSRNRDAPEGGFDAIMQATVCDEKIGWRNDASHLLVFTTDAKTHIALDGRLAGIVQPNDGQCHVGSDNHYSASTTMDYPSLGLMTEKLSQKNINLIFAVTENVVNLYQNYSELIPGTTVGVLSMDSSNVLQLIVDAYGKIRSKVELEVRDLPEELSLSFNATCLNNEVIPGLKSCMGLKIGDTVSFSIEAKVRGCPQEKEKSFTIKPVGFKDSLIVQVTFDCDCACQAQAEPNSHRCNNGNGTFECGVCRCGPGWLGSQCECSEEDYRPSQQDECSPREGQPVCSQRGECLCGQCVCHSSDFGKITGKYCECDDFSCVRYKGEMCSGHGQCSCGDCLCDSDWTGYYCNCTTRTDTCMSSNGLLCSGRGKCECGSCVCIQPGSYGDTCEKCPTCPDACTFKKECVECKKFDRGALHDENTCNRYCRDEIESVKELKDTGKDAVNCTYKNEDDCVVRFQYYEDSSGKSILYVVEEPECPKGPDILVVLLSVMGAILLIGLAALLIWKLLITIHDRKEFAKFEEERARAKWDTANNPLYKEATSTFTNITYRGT

| Substance | binding relative to the monomeric counterpart |
| --- | --- |
| E-[G-G-G-c(RGDfK)]2 | stronger binding |
| E-[c(RGDfK)]2 | stronger binding |
| E-{G-[c(RGDfK)]2}2 | stronger binding |
